Laboratory results: ChEMBL document CHEMBL1137835, “2-(Anilino)imidazolines and 2-(benzyl)imidazoline derivatives as h5-HT1D serotonin receptor ligands” (Bioorg Med Chem Lett, 2004)
pEC50, pKi: −log10 of the molar value.

Tests used:
[1] = target: T1, Alpha-1A adrenergic receptor (Homo sapiens, UniProt P35348); assay: Binding affinity towards human Alpha-1 adrenergic receptor
T1 sequence (P35348 whole entry): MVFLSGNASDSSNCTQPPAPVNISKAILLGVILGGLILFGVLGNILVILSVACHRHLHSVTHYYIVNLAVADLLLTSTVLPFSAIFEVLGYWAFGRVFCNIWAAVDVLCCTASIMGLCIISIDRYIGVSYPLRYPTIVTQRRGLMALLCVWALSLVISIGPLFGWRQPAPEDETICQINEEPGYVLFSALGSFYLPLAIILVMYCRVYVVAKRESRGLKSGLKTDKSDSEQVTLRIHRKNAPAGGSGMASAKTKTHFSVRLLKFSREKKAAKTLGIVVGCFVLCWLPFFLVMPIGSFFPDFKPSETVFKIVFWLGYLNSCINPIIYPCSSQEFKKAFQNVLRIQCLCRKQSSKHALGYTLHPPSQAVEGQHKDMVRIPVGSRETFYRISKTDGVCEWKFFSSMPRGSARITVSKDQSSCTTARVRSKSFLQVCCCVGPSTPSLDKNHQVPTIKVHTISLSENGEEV

[2] = target: T2, 5-hydroxytryptamine receptor 1D (Homo sapiens, UniProt P28221); assay: Binding affinity towards human 5-hydroxytryptamine 1D receptor
T2 sequence (P28221 whole entry): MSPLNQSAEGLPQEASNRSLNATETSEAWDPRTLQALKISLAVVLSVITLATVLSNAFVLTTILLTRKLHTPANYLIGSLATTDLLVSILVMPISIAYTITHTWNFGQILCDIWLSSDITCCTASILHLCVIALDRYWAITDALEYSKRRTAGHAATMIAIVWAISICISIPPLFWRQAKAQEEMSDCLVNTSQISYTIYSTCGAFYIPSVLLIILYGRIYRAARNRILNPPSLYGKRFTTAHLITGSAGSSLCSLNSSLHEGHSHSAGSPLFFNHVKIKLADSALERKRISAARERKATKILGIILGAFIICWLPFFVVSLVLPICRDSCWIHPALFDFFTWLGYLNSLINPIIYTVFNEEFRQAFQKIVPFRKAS

Cavia porcellus [3] = assay: Compound was tested for serotonergic activity on […] induced by electrical stimulation in guinea-pigs (3-7 nM/kg)
[4] = target: T3, 5-hydroxytryptamine receptor 1B (Homo sapiens, UniProt P28222); assay: Binding affinity towards human 5-hydroxytryptamine 1B receptor
T3 sequence (P28222 whole entry): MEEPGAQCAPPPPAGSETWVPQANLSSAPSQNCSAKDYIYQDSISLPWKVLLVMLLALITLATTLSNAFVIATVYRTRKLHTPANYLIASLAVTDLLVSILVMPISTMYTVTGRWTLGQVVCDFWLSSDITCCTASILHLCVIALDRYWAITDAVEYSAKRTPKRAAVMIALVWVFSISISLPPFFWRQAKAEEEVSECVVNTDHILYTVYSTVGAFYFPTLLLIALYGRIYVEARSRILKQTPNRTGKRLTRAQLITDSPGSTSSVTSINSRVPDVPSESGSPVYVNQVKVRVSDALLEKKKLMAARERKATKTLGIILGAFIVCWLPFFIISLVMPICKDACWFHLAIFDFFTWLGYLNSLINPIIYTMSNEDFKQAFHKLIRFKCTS

[5] = target: Serotonin 1 receptors; 5-HT1B & 5-HT1D (Homo sapiens) (UniProt P28222+P28221); assay: Ratio of 5-hydroxytryptamine 1B receptor to that of 5-hydroxytryptamine 1D receptor was determined; assay type: protein assay
[6] = Total plasma clearance in rat at a dose of 5 mg/kg; assay type: ADME, organism-based; design: dose 5 mg/kg; conditions: read-out: Total clearance
[7] = Volume of distribution of compound in rat body tissue at a dose of 5 mg/kg; assay type: ADME, organism-based; design: dose 5 mg/kg; conditions: in vivo
[8] = Plasma half-life in rat at a dose of 5 mg/kg; assay type: ADME, organism-based; design: dose 5 mg/kg
Cavia porcellus [9] = organism: Cavia porcellus; assay: Compound was tested for serotonergic activity on […] induced by electrical stimulation in guinea-pigs
[10] = Oral bioavailability in rat (dose 5 mg/kg); assay type: ADME, organism-based; conditions: in vivo
[11] = target: T4, Muscarinic acetylcholine receptor M4 (Homo sapiens) (UniProt P08173); assay: Inhibitory activity against human Muscarinic acetylcholine receptor M4 at 1000 nM
T4 sequence (whole entry): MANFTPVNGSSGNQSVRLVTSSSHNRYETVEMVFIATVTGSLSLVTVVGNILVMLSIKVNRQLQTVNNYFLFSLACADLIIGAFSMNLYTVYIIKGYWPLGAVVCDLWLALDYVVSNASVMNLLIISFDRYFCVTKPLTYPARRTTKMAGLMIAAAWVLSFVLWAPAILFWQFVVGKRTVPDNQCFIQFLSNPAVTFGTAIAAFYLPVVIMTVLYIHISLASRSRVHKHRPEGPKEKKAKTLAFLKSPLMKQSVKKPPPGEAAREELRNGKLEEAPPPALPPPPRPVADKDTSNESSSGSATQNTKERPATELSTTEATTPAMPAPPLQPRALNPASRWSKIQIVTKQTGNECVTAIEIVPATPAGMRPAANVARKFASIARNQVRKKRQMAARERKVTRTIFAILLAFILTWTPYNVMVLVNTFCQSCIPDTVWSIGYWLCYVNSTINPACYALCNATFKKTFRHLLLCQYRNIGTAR

Oryctolagus cuniculus = organism: Oryctolagus cuniculus; assay: Agonistic activity tested in isolated rabbit saphenous vein; assay type: functional
[12] = target: T2, 5-hydroxytryptamine receptor 1D; conditions: 1000 nM
Description: Percent displacement of radioligand from human 5-hydroxytryptamine 1D receptor at 1000 nM

[13] = target: T3, 5-hydroxytryptamine receptor 1B; conditions: 1000 nM
Description: Percent displacement of radioligand from human 5-hydroxytryptamine 1B receptor at 1000 nM

Compound	pKi [2]	pKi [4]	Selectivity [5]	further results
CC(C)(C)c1ccc(C2=NCCN2)cc1	6.98	–	–	pKi [1]: 7.04
CNS(=O)(=O)Cc1ccc2[nH]cc(CCN(C)C)c2c1	–	–	–	IC50 (Cavia porcellus [3]): 7 nM/kg
Cc1cc(C(C)(C)C)cc(C)c1N=C1NCCN1	9.52	7.92	–	–
Cc1cccc(C)c1CC1=NCCN1	–	–	> 4	–
Cc1cc([N+](=O)[O-])cc(C)c1N=C1NCCN1	6.48	4.99	–	–
Cc1cccc(C)c1N=C1NCCN1	5.68	< 4.52	> 10	–
Cc1cc(C(C)(C)C)cc(C)c1CC1=NCCN1 [XYLOMETAZOLINE]	–	7.89	–	pKi [1]: 7.04
Cc1cc(C(C)(C)C)cc(C)c1CC1=NCCCN1	7.48	5.35	–	clearance [6]: 28.9 mL/min/kg; Vd [7]: 1.24 L/kg; half-life [8]: 1.03 h; IC50 (Cavia porcellus [9]): 5 nM/kg; bioavailability [10]: 9.9%
Cc1cc([N+](=O)[O-])cc(C)c1NC1=NCCN1	–	–	30	–
Clc1cc(I)cc(Cl)c1N=C1NCCN1 [PI-CLONIDINE]	7.30	5.70	40	–
Cc1cc(C(C)(C)C)cc(C)c1CC1=NCCN1Cc1ccccc1	–	–	–	clearance [6]: 57.6 mL/min/kg; inhibition [11]: 68%; Vd [7]: 7.28 L/kg; half-life [8]: 1.64 h; IC50 (Cavia porcellus [9]): 0.4 nM/kg; bioavailability [10]: 9.3%; pEC50 (Oryctolagus cuniculus): 6.11
Cc1cc(C(C)(C)C)cc(C)c1CC1=NCCN1C	–	–	–	clearance [6]: 66.4 mL/min/kg; Vd [7]: 3.97 L/kg; half-life [8]: 0.95 h; IC50 (Cavia porcellus [9]): 10 nM/kg; bioavailability [10]: 42.1%
Cc1cc(Br)cc(C)c1N=C1NCCN1	7.27	5.84	26	–
Cc1cc(Br)cc(C)c1CC1=NCCN1	–	–	20	–
c1ccc(NC2=NCCN2)cc1	< 4.52	< 4.52	–	–
Clc1cccc(Cl)c1NC1=NCCN1	–	–	–	inhibition [12]: < 5%; inhibition [13]: < 5%
Cc1cc(C(C)(C)C)cc(C)c1NC1=NCCN1	–	–	40	–
